Assay results published in patent US7138361B2, “Herbicidal heterocycles” (E. I. du Pont de Nemours and Company, priority 2000, dated 2006).

Legend:
Assay in all cases: Test A postemergence, sprayed to runoff
Format in all cases: in vivo
[1] = test system: morning glory (Ipomoea spp.); parameters: scale not given here; conditions: Morningglory, approx. eleven days
Protocol: (§1) Seeds of barnyardgrass (Echinochloa crus-galli), crabgrass (Digitaria spp.), giant foxtail (Setaria viridis), morning glory (Ipomoea spp.), redroot pigweed (Amaranthus retroflexus) and velvetleaf (Abutilon theophrasti) were planted into a sandy loam soil and treated preemergence by soil drench with test chemicals formulated in a non-phytotoxic solvent mixture which included a surfactant. At the same time, these crop and weed species were also treated postemergence sprayed to runoff with test chemicals formulated in the same manner. Plants ranged in height from two to eighteen cm and were in the one- to two-leaf stage for the postemergence treatment. Treated plants and untreated controls were maintained in a greenhouse for approximately eleven days, after which time all treated plants were compared to untreated controls and visually evaluated for injury. Plant response ratings, summarized in Table A, are based on a 0 to 10 scale where 0 is no effect and 10 is complete control. A dash (-) response means no test results.

[2] = test system: velvetleaf (Abutilon theophrasti); parameters: scale not given here; conditions: approx. eleven days
Protocol: as §1

[3] = test system: crabgrass (Digitaria spp.); conditions: approx. eleven days
Protocol: as §1

[4] = test system: giant foxtail (Setaria viridis); conditions: approx. eleven days
Protocol: as §1

[5] = test system: redroot pigweed (Amaranthus retroflexus); conditions: approx. eleven days
Protocol: as §1

Compound: O=C1C(n2cccn2)CCN1c1cccc(C(F)(F)F)c1 (centres unmarked) [Compound 15]
- Plant response rating (visual injury vs untreated controls) ([1]; Rate 500 g/ha): 30
- Plant response rating (visual injury vs untreated controls) ([1]; Rate 2000 g/ha): 20
- Plant response rating (visual injury vs untreated controls) ([2]; Rate 500 g/ha): 0
- Plant response rating (visual injury vs untreated controls) ([2]; Rate 2000 g/ha): 10
- Plant response rating (visual injury vs untreated controls) ([3]; Rate 500 g/ha): 10
- Plant response rating (visual injury vs untreated controls) ([3]; Rate 2000 g/ha): 10
- Plant response rating (visual injury vs untreated controls) ([4]; Rate 500 g/ha): 10
- Plant response rating (visual injury vs untreated controls) ([4]; Rate 2000 g/ha): 10
- Plant response rating (visual injury vs untreated controls) ([5]; Rate 500 g/ha): 0
- Plant response rating (visual injury vs untreated controls) ([5]; Rate 2000 g/ha): 0

Compound: Cc1ccn(C2CCN(c3cccc(C(F)(F)F)c3)C2=O)n1 (centres unmarked) [Compound 16]
- Plant response rating (visual injury vs untreated controls) ([1]; Rate 500 g/ha): 20
- Plant response rating (visual injury vs untreated controls) ([1]; Rate 2000 g/ha): 20
- Plant response rating (visual injury vs untreated controls) ([2]; Rate 500 g/ha): 0
- Plant response rating (visual injury vs untreated controls) ([2]; Rate 2000 g/ha): 20
- Plant response rating (visual injury vs untreated controls) ([3]; Rate 500 g/ha): 10
- Plant response rating (visual injury vs untreated controls) ([3]; Rate 2000 g/ha): 20
- Plant response rating (visual injury vs untreated controls) ([4]; Rate 500 g/ha): 0
- Plant response rating (visual injury vs untreated controls) ([4]; Rate 2000 g/ha): 30
- Plant response rating (visual injury vs untreated controls) ([5]; Rate 500 g/ha): 0
- Plant response rating (visual injury vs untreated controls) ([5]; Rate 2000 g/ha): 0

Compound: O=C1C(n2ccc(C3CC3)n2)SCN1c1cccc(C(F)(F)F)c1 (centres unmarked) [Compound 26]
- Plant response rating (visual injury vs untreated controls) ([1]; Rate 500 g/ha): 20
- Plant response rating (visual injury vs untreated controls) ([1]; Rate 2000 g/ha): 50
- Plant response rating (visual injury vs untreated controls) ([2]; Rate 500 g/ha): 10
- Plant response rating (visual injury vs untreated controls) ([2]; Rate 2000 g/ha): 10
- Plant response rating (visual injury vs untreated controls) ([3]; Rate 500 g/ha): 30
- Plant response rating (visual injury vs untreated controls) ([3]; Rate 2000 g/ha): 20
- Plant response rating (visual injury vs untreated controls) ([4]; Rate 500 g/ha): 50
- Plant response rating (visual injury vs untreated controls) ([4]; Rate 2000 g/ha): 100
- Plant response rating (visual injury vs untreated controls) ([5]; Rate 500 g/ha): 40
- Plant response rating (visual injury vs untreated controls) ([5]; Rate 2000 g/ha): 80

Compound: CC(C)c1ccn(C2OCN(c3cccc(C(F)(F)F)c3)C2=O)n1 (centres unmarked) [Compound 27]
- Plant response rating (visual injury vs untreated controls) ([1]; Rate 500 g/ha): 0
- Plant response rating (visual injury vs untreated controls) ([1]; Rate 2000 g/ha): 20
- Plant response rating (visual injury vs untreated controls) ([2]; Rate 500 g/ha): 0
- Plant response rating (visual injury vs untreated controls) ([2]; Rate 2000 g/ha): 20
- Plant response rating (visual injury vs untreated controls) ([3]; Rate 500 g/ha): 20
- Plant response rating (visual injury vs untreated controls) ([3]; Rate 2000 g/ha): 60
- Plant response rating (visual injury vs untreated controls) ([4]; Rate 500 g/ha): 50
- Plant response rating (visual injury vs untreated controls) ([4]; Rate 2000 g/ha): 90
- Plant response rating (visual injury vs untreated controls) ([5]; Rate 500 g/ha): 20
- Plant response rating (visual injury vs untreated controls) ([5]; Rate 2000 g/ha): 80

Compound: O=C1C(n2ccc(C3CC3)n2)OCN1c1cccc(C(F)(F)F)c1 (centres unmarked) [Compound 28]
- Plant response rating (visual injury vs untreated controls) ([1]; Rate 500 g/ha): 10
- Plant response rating (visual injury vs untreated controls) ([1]; Rate 2000 g/ha): 20
- Plant response rating (visual injury vs untreated controls) ([2]; Rate 500 g/ha): 0
- Plant response rating (visual injury vs untreated controls) ([2]; Rate 2000 g/ha): 50
- Plant response rating (visual injury vs untreated controls) ([3]; Rate 500 g/ha): 20
- Plant response rating (visual injury vs untreated controls) ([3]; Rate 2000 g/ha): 40
- Plant response rating (visual injury vs untreated controls) ([4]; Rate 500 g/ha): 80
- Plant response rating (visual injury vs untreated controls) ([4]; Rate 2000 g/ha): 90
- Plant response rating (visual injury vs untreated controls) ([5]; Rate 500 g/ha): 20
- Plant response rating (visual injury vs untreated controls) ([5]; Rate 2000 g/ha): 80

Compound: CC(C)(C)c1ccn(C2CCN(c3cccc(I)c3)C2=O)n1 (centres unmarked) [Compound 88]
- Plant response rating (visual injury vs untreated controls) ([1]; Rate 500 g/ha): 10
- Plant response rating (visual injury vs untreated controls) ([1]; Rate 2000 g/ha): 30
- Plant response rating (visual injury vs untreated controls) ([2]; Rate 500 g/ha): 0
- Plant response rating (visual injury vs untreated controls) ([2]; Rate 2000 g/ha): 0
- Plant response rating (visual injury vs untreated controls) ([3]; Rate 500 g/ha): 20
- Plant response rating (visual injury vs untreated controls) ([3]; Rate 2000 g/ha): 40
- Plant response rating (visual injury vs untreated controls) ([4]; Rate 500 g/ha): 40
- Plant response rating (visual injury vs untreated controls) ([4]; Rate 2000 g/ha): 90
- Plant response rating (visual injury vs untreated controls) ([5]; Rate 500 g/ha): 80
- Plant response rating (visual injury vs untreated controls) ([5]; Rate 2000 g/ha): 100

Compound: CC(C)(C)c1ccn(C2CCN(c3cccc(C(F)(F)F)c3)C2=O)n1 (centres unmarked) [Example 3, 3-[3-(1,1-dimethylethyl)-1H-pyrazol-1-yl]-1-[3-(trifluoromethyl)phenyl]-2-pyrrolidinone]
- Plant response rating (visual injury vs untreated controls) ([1]; Rate 250 g/ha): 10
- Plant response rating (visual injury vs untreated controls) ([1]; Rate 1000 g/ha): 10
- Plant response rating (visual injury vs untreated controls) ([2]; Rate 250 g/ha): 0
- Plant response rating (visual injury vs untreated controls) ([2]; Rate 1000 g/ha): 0
- Plant response rating (visual injury vs untreated controls) ([3]; Rate 250 g/ha): 0
- Plant response rating (visual injury vs untreated controls) ([3]; Rate 1000 g/ha): 0
- Plant response rating (visual injury vs untreated controls) ([4]; Rate 250 g/ha): 0
- Plant response rating (visual injury vs untreated controls) ([4]; Rate 1000 g/ha): 10
- Plant response rating (visual injury vs untreated controls) ([5]; Rate 250 g/ha): 60
- Plant response rating (visual injury vs untreated controls) ([5]; Rate 1000 g/ha): 10

Compound: CC(C)(C)c1ccn(C2OCN(c3cccc(C(F)(F)F)c3)C2=O)n1 (centres unmarked) [compound 9]
- Plant response rating (visual injury vs untreated controls) ([1]; Rate 500 g/ha): 10
- Plant response rating (visual injury vs untreated controls) ([1]; Rate 2000 g/ha): 10
- Plant response rating (visual injury vs untreated controls) ([2]; Rate 500 g/ha): 0
- Plant response rating (visual injury vs untreated controls) ([2]; Rate 2000 g/ha): 40
- Plant response rating (visual injury vs untreated controls) ([3]; Rate 500 g/ha): 20
- Plant response rating (visual injury vs untreated controls) ([3]; Rate 2000 g/ha): 10
- Plant response rating (visual injury vs untreated controls) ([4]; Rate 500 g/ha): 30
- Plant response rating (visual injury vs untreated controls) ([4]; Rate 2000 g/ha): 100
- Plant response rating (visual injury vs untreated controls) ([5]; Rate 500 g/ha): 20
- Plant response rating (visual injury vs untreated controls) ([5]; Rate 2000 g/ha): 80
